Measurements reported in article PMC9368490, “Exploring the Molecular Interactions of Symmetrical and Unsymmetrical Selenoglycosides with Human Galectin-1 and Galectin-3” (International Journal of Molecular Sciences, 2022).

How the values were obtained:
[1] = target: T1, Gal-1 (Homo sapiens, UniProt P09382); assay: biochemical
T1 construct: gene LGALS1

[2] = target: T2, Gal-3^CRD (Homo sapiens, UniProt P17931); assay: biochemical
T2 construct: gene LGALS3
T2 sequence (P17931 112-250): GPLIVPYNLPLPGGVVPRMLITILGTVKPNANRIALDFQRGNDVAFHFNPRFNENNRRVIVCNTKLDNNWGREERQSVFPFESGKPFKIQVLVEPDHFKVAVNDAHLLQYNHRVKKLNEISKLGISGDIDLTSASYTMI

T1 sequence (P09382 whole entry): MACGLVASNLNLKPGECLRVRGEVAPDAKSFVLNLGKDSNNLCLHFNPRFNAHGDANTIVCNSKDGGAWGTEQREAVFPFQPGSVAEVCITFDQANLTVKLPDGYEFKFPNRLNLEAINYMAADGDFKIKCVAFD

`OC[C@H]1O[C@@H]([Se][C@@H]2O[C@H](CO)[C@H](O)[C@H](O)[C@H]2O)[C@H](O)[C@@H](O)[C@H]1O` [SeDG] gave a Kd [1] of 23.7 ± 4.2 µM and a Kd [2] of 20.2 ± 2.2 µM.
